Our source for the flash point values is a flash point compilation (Sun et al. 2020).

Take `Nc1ccc([N+](=O)[O-])cc1[N+](=O)[O-]` [2,4-dinitroaniline]: the flash point came to 224.00 °C.

As to `CC(C)(C)OOC(C)(C)CCC(C)(C)OOC(C)(C)C` [2,5-bis(tert-butylperoxy)-2,5-dimethylhexane], the flash point is 85.00 °C.

`O=S1(=O)CC=CC1` [2,5-dihydrothiophene 1,1-dioxide] came in with a flash point of 113.00 °C.

As for `CC1COC(C)CO1` (stereo not drawn) [2,5-dimethyl-1,4-dioxane], the flash point was 24.00 °C.

In turn, `Cc1ccc(C)c(N)c1` [2,5-dimethylaniline] returned a flash point of 94.00 °C.

`CC1=CCC2CC1C2(C)C` (stereo not drawn) [2,6,6-trimethylbicyclo[3.1.1]hept-2-ene]: the flash point was 33.00 °C.

In the case of `Cc1cccc(C)c1N` [2,6-dimethylaniline], the flash point was 91.00 °C.

For the molecule `CC(C)=CC(=O)C=C(C)C` [2,6-dimethylhepta-2,5-dien-4-one], the flash point stood at 85.00 °C.

The molecule `CC(C)CC(O)CC(C)C` [2,6-dimethylheptan-4-ol] displayed a flash point of 74.00 °C.

`CC1CNCC(C)O1` (stereo not drawn) [2,6-dimethylmorpholine] registered a flash point of 44.00 °C.

With `Cc1cccc(C)c1O` [2,6-dimethylphenol], the flash point was 74.00 °C.

In the case of `Cc1cc(C(C)(C)C)c(O)c(C(C)(C)C)c1` [2,6-ditert-butyl-4-methylphenol], the flash point was 127.00 °C.

Take `c1ccc2sc(SSc3nc4ccccc4s3)nc2c1` [2-(1,3-benzothiazol-2-yldisulfanyl)-1,3-benzothiazole]: the flash point is 270.00 °C.

In the case of `NCCOCCO` [2-(2-aminoethoxy)ethanol], the flash point was found to be 127.00 °C.

Regarding `NCCNCCO` [2-(2-aminoethylamino)ethanol], the flash point amounted to 102.00 °C.

`O=C(OCCOCCOC(=O)c1ccccc1)c1ccccc1` [2-(2-benzoyloxyethoxy)ethyl benzoate] showed a flash point of 232.00 °C.

The molecule `CCCCOCCOCCO` [2-(2-butoxyethoxy)ethanol] returned a flash point of 78.00 °C.

Take `CCCCOCCOCCOC(C)=O` [2-(2-butoxyethoxy)ethyl acetate]: the flash point worked out at 116.00 °C.

As to `CCOCCOCCO` [2-(2-ethoxyethoxy)ethanol], the flash point was 96.00 °C.

Regarding `CCCCC(CC)COCC1CO1` (stereo not drawn) [2-(2-ethylhexoxymethyl)oxirane], the flash point amounted to 97.00 °C.

In the case of `COCCOCCO` [2-(2-methoxyethoxy)ethanol], the flash point worked out at 93.00 °C.

As for `COC(C)COC(C)CO` (stereo not drawn) [2-(2-methoxypropoxy)propan-1-ol], the flash point was 74.00 °C.

For the molecule `COC(C)COC(C)COC(C)=O` (stereo not drawn) [2-(2-methoxypropoxy)propyl acetate], the flash point was found to be 86.00 °C.

The molecule `C=C(C)C(=O)OCCOC(=O)C(=C)C` [2-(2-methylprop-2-enoyloxy)ethyl 2-methylprop-2-enoate] registered a flash point of 101.00 °C.

For the molecule `C=CC(=O)OCCOCCOC(=O)C=C` [2-(2-prop-2-enoyloxyethoxy)ethyl prop-2-enoate], the flash point is 78.00 °C.

Turning to `Cc1ccc(C(C)(C)O)cc1` [2-(4-methylphenyl)propan-2-ol], the flash point came out at 96.00 °C.

In turn, `BrCC1CO1` (stereo not drawn) [2-(bromomethyl)oxirane] had a flash point of 56.00 °C.

Regarding `ClCC1CO1` (stereo not drawn) [2-(chloromethyl)oxirane], the flash point was determined as 34.00 °C.

`C=CC(=O)OCCN(C)C` [2-(dimethylamino)ethyl prop-2-enoate] gave a flash point of 29.00 °C.

For `FCC1CO1` (stereo not drawn) [2-(fluoromethyl)oxirane], the flash point came out at 4.00 °C.

As to `C=CCOCC1CO1` (stereo not drawn) [2-(prop-2-enoxymethyl)oxirane], the flash point was found to be 57.00 °C.

The molecule `CCCCOC(=O)c1ccccc1C(=O)OCc1ccccc1` [2-O-benzyl 1-O-butyl benzene-1,2-dicarboxylate] came in with a flash point of 199.00 °C.

The molecule `COCC(C)OCC(C)OC(C)CO` (stereo not drawn) [2-[1-(1-methoxypropan-2-yloxy)propan-2-yloxy]propan-1-ol] had a flash point of 121.00 °C.

`CC(COc1ccc(Oc2ccccc2)cc1)Oc1ccccn1` (stereo not drawn) [2-[1-(4-phenoxyphenoxy)propan-2-yloxy]pyridine] came in with a flash point of 119.00 °C.

`CC(=O)OCCOCCOCCOC(C)=O` [2-[2-(2-acetyloxyethoxy)ethoxy]ethyl acetate] registered a flash point of 174.00 °C.

`CCCCOCCOCCOCCO` [2-[2-(2-butoxyethoxy)ethoxy]ethanol] had a flash point of 143.00 °C.

The molecule `COC(C)COC(C)COC(C)CO` (stereo not drawn) [2-[2-(2-methoxypropoxy)propoxy]propan-1-ol] yielded a flash point of 111.00 °C.

Turning to `COC(O)COCCOCCOCCO` (stereo not drawn) [2-[2-[2-(2-hydroxyethoxy)ethoxy]ethoxy]-1-methoxyethanol], the flash point was 161.00 °C.

Turning to `CC(C)(C)c1ccc(OCC2CO2)cc1` (stereo not drawn) [2-[(4-tert-butylphenoxy)methyl]oxirane], the flash point stood at 102.00 °C.

For the molecule `OCCN(CCO)CCO` [2-[bis(2-hydroxyethyl)amino]ethanol], the flash point stood at 185.00 °C.

As for `CCOP(=O)(SC(C)CC)SC(C)CC` (stereo not drawn) [2-[butan-2-ylsulfanyl(ethoxy)phosphoryl]sulfanylbutane], the flash point is 129.00 °C.

`CCN(CCO)CCO` [2-[ethyl(2-hydroxyethyl)amino]ethanol] displayed a flash point of 98.00 °C.

As for `CC(=O)OCCOC(C)=O` [2-acetyloxyethyl acetate], the flash point was 96.00 °C.

`CC(C)(N)CO` [2-amino-2-methylpropan-1-ol] had a flash point of 67.00 °C.

For `Nc1cc(Cl)ccc1O` [2-amino-4-chlorophenol], the flash point was 170.00 °C.

`Nc1ccc2c(c1)C(=O)c1ccccc1C2=O` [2-aminoanthracene-9,10-dione] came in with a flash point of 283.00 °C.

In turn, `CC(N)CO` (stereo not drawn) [2-aminopropan-1-ol] registered a flash point of 63.00 °C.

Take `O=C1OC(=O)c2ccccc21` [2-benzofuran-1,3-dione]: the flash point is 152.00 °C.

For the molecule `OCCBr` [2-bromoethanol], the flash point turned out to be 41.00 °C.

`Oc1ccccc1Br` [2-bromophenol] yielded a flash point of 42.00 °C.

In turn, `CCC(C)c1ccccc1O` (stereo not drawn) [2-butan-2-ylphenol] showed a flash point of 112.00 °C.

`CCCCOCCO` [2-butoxyethanol] gave a flash point of 61.00 °C.

For `Nc1ccc([N+](=O)[O-])cc1Cl` [2-chloro-4-nitroaniline], the flash point turned out to be 205.00 °C.

Turning to `Clc1cccc(C(Cl)(Cl)Cl)n1` [2-chloro-6-(trichloromethyl)pyridine], the flash point amounted to 100.00 °C.

As for `CCc1cccc(CC)c1N(COC)C(=O)CCl` [2-chloro-N-(2,6-diethylphenyl)-N-(methoxymethyl)acetamide], the flash point amounted to 137.00 °C.

In turn, `O=CCCl` [2-chloroacetaldehyde] came in with a flash point of 88.00 °C.

The molecule `NC(=O)CCl` [2-chloroacetamide] showed a flash point of 170.00 °C.

`N#CCCl` [2-chloroacetonitrile] showed a flash point of 48.00 °C.
